Laboratory results: the CheMixHub ionic liquid set

Test: xn = mol fraction of the nth substance listed

CCCC[n+]1ccn(C)c1.F[B-](F)(F)F + CC(=O)N(C)C
Settings | electrical conductivity [S/m] | viscosity [mPa·s]
288.15 K, 100 kPa, x1 = 5.846e-05 | 0.003905 | –
288.15 K, 100 kPa, x1 = 0.0006944 | 0.04135 | –
293.15 K, 101 kPa, x1 = 0.7419 | – | 51.8
293.15 K, 101 kPa, x1 = 0.8488 | – | 74
293.15 K, 101 kPa, x1 = 0.9175 | – | 96
293.15 K, 101 kPa, x1 = 1 | – | 125
298.15 K, 100 kPa, x1 = 0.0002592 | 0.01885 | –
298.15 K, 101 kPa, x1 = 0.7419 | – | 44.6
298.15 K, 101 kPa, x1 = 0.8488 | – | 63.1
298.15 K, 101 kPa, x1 = 0.9175 | – | 81
298.15 K, 101 kPa, x1 = 1 | – | 105
303.15 K, 101 kPa, x1 = 0.7419 | – | 36.7
303.15 K, 101 kPa, x1 = 0.8488 | – | 52.7
303.15 K, 101 kPa, x1 = 0.9175 | – | 67
303.15 K, 101 kPa, x1 = 1 | – | 88
308.15 K, 100 kPa, x1 = 5.846e-05 | 0.005095 | –
308.15 K, 100 kPa, x1 = 0.0008703 | 0.06575 | –
308.15 K, 100 kPa, x1 = 0.001047 | 0.07765 | –
308.15 K, 101 kPa, x1 = 0.7419 | – | 29.6
308.15 K, 101 kPa, x1 = 0.8488 | – | 43.4
308.15 K, 101 kPa, x1 = 0.9175 | – | 54.9
308.15 K, 101 kPa, x1 = 1 | – | 72
313.15 K, 101 kPa, x1 = 0.7419 | – | 22.6
313.15 K, 101 kPa, x1 = 0.8488 | – | 33.5
313.15 K, 101 kPa, x1 = 0.9175 | – | 42.9
313.15 K, 101 kPa, x1 = 1 | – | 57.7
313.15 K, 101 kPa, x2 = 0.5002 | – | 9.57
313.15 K, 101 kPa, x2 = 0.8999 | – | 1.434
318.15 K, 101 kPa, x1 = 0.7419 | – | 16.2
318.15 K, 101 kPa, x1 = 0.8488 | – | 24.3
318.15 K, 101 kPa, x1 = 0.9175 | – | 31.8
318.15 K, 101 kPa, x1 = 1 | – | 44
323.15 K, 101 kPa, x1 = 0.7419 | – | 9.8
323.15 K, 101 kPa, x1 = 0.8488 | – | 16.2
323.15 K, 101 kPa, x1 = 0.9175 | – | 22.3
323.15 K, 101 kPa, x1 = 1 | – | 31.6
323.15 K, 101 kPa, x2 = 0.5998 | – | 5.02
323.15 K, 101 kPa, x2 = 0.6996 | – | 3.3
323.15 K, 101 kPa, x2 = 0.8999 | – | 1.253
333.15 K, 101 kPa, x2 = 0.8002 | – | 1.77

CCCC[n+]1ccn(C)c1.O=C([O-])C(F)(F)F + CC(=O)[O-].CCCC[n+]1ccn(C)c1
viscosity [mPa·s], 101 kPa
Settings | 293.15 K | 298.15 K | 303.15 K | 313.15 K | 323.15 K | 333.15 K | 343.15 K | 353.15 K
x2 = 0 | – | – | 58 | 37.8 | 26.1 | 18.89 | 14.47 | 11.25
x2 = 0.2508 | 137.7 | 103 | 78.8 | 49.7 | 33 | 23.2 | 17.33 | 13.18
x2 = 0.4999 | 210 | 152.5 | 113.3 | 66.8 | 42.9 | 29.1 | 20.74 | 15.68
x2 = 0.7487 | 343 | 238 | 171.1 | 94.9 | 57.4 | 37.6 | 25.9 | 18.86

CN(CCO)CCO + CC(=O)[O-].CC[n+]1ccn(C)c1
101 kPa, x2 = 0
Settings | electrical conductivity [S/m] | viscosity [mPa·s]
288.15 K | 0.000224 | –
293.15 K | 0.00029 | –
298.15 K | 0.000397 | –
303.15 K | 0.000528 | –
308.15 K | 0.000675 | –
313.15 K | 0.000896 | –
318.15 K | 0.00113 | –
323.15 K | 0.00144 | –
328.15 K | 0.00187 | 16.9
333.15 K | 0.00236 | –
338.15 K | 0.00295 | 11.56
343.15 K | 0.00365 | 9.79
348.15 K | 0.00455 | –
353.15 K | 0.00556 | –

CC(=O)[O-].C[NH+]1CCCC1 + CC(=O)[O-].Cn1cc[nH+]c1
298.15 K, 100 kPa
Settings | viscosity [mPa·s]
x2 = 0 | 3.78
x2 = 0.1 | 4.87
x2 = 0.19 | 5.35
x2 = 0.31 | 6.23
x2 = 0.4 | 6.46
x2 = 0.5 | 6.78
x2 = 0.59 | 6.74
x2 = 0.71 | 6.59
x2 = 0.8 | 6.47

CCCC[n+]1ccn(C)c1.F[B-](F)(F)F + CC(=O)c1ccccc1
100 kPa, x2 = 0
Settings | viscosity [mPa·s]
293.15 K | 133
303.15 K | 77
313.15 K | 49.1
323.15 K | 33
333.15 K | 23.3

CCCC[n+]1ccn(C)c1.F[B-](F)(F)F + CC(C)=O
Settings | electrical conductivity [S/m] | viscosity [mPa·s]
296.15 K, 101 kPa, x2 = 0 | 0.35 | –
296.15 K, 101 kPa, x2 = 0.3019 | 2.03 | –
296.15 K, 101 kPa, x2 = 0.6252 | 2.89 | –
296.15 K, 101 kPa, x2 = 0.7956 | 3.5 | –
296.15 K, 101 kPa, x2 = 0.8537 | 3.61 | –
296.15 K, 101 kPa, x2 = 0.9008 | 3.71 | –
296.15 K, 101 kPa, x2 = 0.9396 | 2.92 | –
296.15 K, 101 kPa, x2 = 0.9722 | 1.66 | –
298.15 K, 101 kPa, x2 = 0 | 0.194 | 116
298.15 K, 101 kPa, x2 = 0.0973 | 0.311 | 78
298.15 K, 101 kPa, x2 = 0.1863 | 0.44 | 53.3
298.15 K, 101 kPa, x2 = 0.2878 | 0.623 | 34.2
298.15 K, 101 kPa, x2 = 0.3877 | 0.87 | 21.4
298.15 K, 101 kPa, x2 = 0.4853 | 1.18 | 12.9
298.15 K, 101 kPa, x2 = 0.5858 | 1.61 | 7.39
298.15 K, 101 kPa, x2 = 0.6762 | 1.98 | 4.24
298.15 K, 101 kPa, x2 = 0.8151 | 2.2 | 1.61
303.15 K, 100 kPa, x1 = 0.0999 | – | 0.726
303.15 K, 100 kPa, x1 = 0.2 | – | 1.48
303.15 K, 100 kPa, x1 = 0.3002 | – | 2.789
303.15 K, 100 kPa, x1 = 0.4003 | – | 4.968
303.15 K, 100 kPa, x1 = 0.4996 | – | 8.387
303.15 K, 100 kPa, x1 = 0.6008 | – | 14.14
303.15 K, 100 kPa, x1 = 0.7006 | – | 22.8
303.15 K, 100 kPa, x1 = 0.7995 | – | 35.07
303.15 K, 100 kPa, x1 = 0.9 | – | 54.72
303.15 K, 100 kPa, x1 = 1 | – | 85.4
313.15 K, 100 kPa, x1 = 0.0999 | – | 0.654
313.15 K, 100 kPa, x1 = 0.2 | – | 1.3
313.15 K, 100 kPa, x1 = 0.3002 | – | 2.394
313.15 K, 100 kPa, x1 = 0.4003 | – | 4.185
313.15 K, 100 kPa, x1 = 0.4996 | – | 6.706
313.15 K, 100 kPa, x1 = 0.6008 | – | 10.83
313.15 K, 100 kPa, x1 = 0.7006 | – | 16.72
313.15 K, 100 kPa, x1 = 0.7995 | – | 24.44
313.15 K, 100 kPa, x1 = 0.9 | – | 36.14
313.15 K, 100 kPa, x1 = 1 | – | 53.84
323.15 K, 100 kPa, x1 = 0.0999 | – | 0.595
323.15 K, 100 kPa, x1 = 0.2 | – | 1.171
323.15 K, 100 kPa, x1 = 0.3002 | – | 2.094
323.15 K, 100 kPa, x1 = 0.4003 | – | 3.567
323.15 K, 100 kPa, x1 = 0.4996 | – | 5.516
323.15 K, 100 kPa, x1 = 0.6008 | – | 8.67
323.15 K, 100 kPa, x1 = 0.7006 | – | 12.67
323.15 K, 100 kPa, x1 = 0.7995 | – | 17.99
323.15 K, 100 kPa, x1 = 0.9 | – | 25.35
323.15 K, 100 kPa, x1 = 1 | – | 36.27

CCCC[n+]1ccn(C)c1.F[B-](F)(F)F + CC(C)C[C@H](N)C(=O)O + O
viscosity [mPa·s], 100 kPa
Settings | 293.15 K | 298.15 K | 303.15 K | 308.15 K | 313.15 K | 318.15 K
x2 = 0, x1 = 0.0003729 | 1.03 | 0.917 | 0.835 | 0.751 | 0.693 | 0.638
x2 = 0, x1 = 0.0007257 | 1.062 | 0.951 | 0.868 | 0.789 | 0.736 | 0.681
x2 = 0, x1 = 0.0011 | 1.093 | 0.983 | 0.904 | 0.83 | 0.779 | 0.725

CCCC[n+]1ccn(C)c1.F[B-](F)(F)F + CC(C)O
viscosity [mPa·s], 101 kPa
Settings | 293.15 K | 298.15 K | 303.15 K | 308.15 K | 313.15 K | 318.15 K | 323.15 K
x1 = 0.0804 | 4.9 | 4.2 | 3.89 | 3.46 | 2.84 | 2.16 | 1.48
x1 = 0.1585 | 7.6 | 7 | 6.52 | 5.78 | 4.67 | 3.41 | 2.15
x1 = 0.2402 | 11.4 | 10.3 | 9.5 | 8.4 | 6.8 | 4.9 | 3.01
x1 = 0.3505 | 16 | 15 | 14 | 12.4 | 9.9 | 7.1 | 4.34
x1 = 0.4422 | 20.7 | 19.7 | 18.2 | 16 | 12.9 | 9.3 | 5.78
x1 = 0.5619 | 28.4 | 26.7 | 24.9 | 21.9 | 17.6 | 12.9 | 8.3
x1 = 0.6491 | 36.8 | 34.3 | 31.3 | 27.6 | 22.2 | 16.5 | 10.8
x1 = 0.7409 | 48.5 | 44.8 | 40 | 34.6 | 27.9 | 20.9 | 14.1
x1 = 0.8458 | 69 | 61.6 | 53.7 | 45.8 | 36.8 | 27.8 | 19.3
x1 = 0.9327 | 95 | 82 | 70 | 58.8 | 47.1 | 35.9 | 25.4
x1 = 1 | 125 | 105 | 88 | 72 | 57.7 | 44 | 31.6

CCCC[n+]1ccn(C)c1.F[B-](F)(F)F + CCC(C)=O
100 kPa, x1 = 1
Settings | viscosity [mPa·s]
303.15 K | 85.4
313.15 K | 53.84
323.15 K | 36.27
333.15 K | 25.46

CC[n+]1ccn(C)c1.N#C[N-]C#N + CCC(C)O
viscosity [mPa·s], 100 kPa
Settings | x1 = 0.1023 | x1 = 0.2005 | x1 = 0.3015 | x1 = 0.4018 | x1 = 0.5032 | x1 = 0.6026 | x1 = 0.7026 | x1 = 0.8032 | x1 = 0.9029 | x1 = 1
298.15 K | 3.05 | 3.17 | 3.48 | 3.86 | 4.53 | 5.4 | 6.7 | 8.3 | 10.3 | 13.1
303.15 K | 2.59 | 2.71 | 3.02 | 3.41 | 4.07 | 4.95 | 6.1 | 7.5 | 9.6 | 11.8
308.15 K | 2.25 | 2.37 | 2.68 | 3.06 | 3.72 | 4.63 | 5.6 | 7 | 8.9 | 10.9
313.15 K | 2.01 | 2.13 | 2.41 | 2.69 | 3.36 | 4.19 | 5.1 | 6.4 | 7.8 | 9
318.15 K | 1.83 | 1.95 | 2.26 | 2.54 | 3.06 | 3.79 | 4.59 | 5.8 | 6.9 | 8.1
323.15 K | 1.67 | 1.79 | 2.05 | 2.26 | 2.83 | 3.51 | 4.18 | 5 | 6.2 | 7.3

CCCCCCCCO + CCCCCCCC(=O)[O-].c1c[nH+]c[nH]1
Settings | viscosity [mPa·s]
293.15 K, 101.3 kPa, x1 = 1 | 9.18
